Experimental data published in US4590063A, “Anticonvulsants” (Adria Laboratories, Inc., priority 1985, dated 1986).

Experiments:
[1] = Solubility in water and ethyl alcohol; type: physicochemical; details: recrystallized product
[2] = in vivo; details: mouse; for LD50 at 24 h: oral gavage, mice, read-out: Acute (24 hr.) Toxicity Approximate LD50; for safety ratio (LD50/ED50): po, LD50 (24 hr., mice) divided by ED50 (supramaximal electroshock), read-out: Approximate Safety Ratio LD50/ED50
Experimental: (§1) Male albino ICR-swiss mice fasted for 5-6 hours and weighing 20-26 grams are used in all procedures. The compounds of the Examples 1 and 2 are dissolved in water and administered in dosages of 0.01 cc per gram body weight to groups of twelve mice via oral gavage at the milligrams per kilograms per body weight in the table below. One hour after administration of the compound, the mice are given a transcranal electroshock, 60 hertz, 25 milliamps of 0.2 second duration. This stimulus is approximately 3 times the current required to produce tonic flexion-extension convulsions in 100% of the control mice tested. The animals are then observed, and the number undergoing convulsion noted. When the ED50 is bracketed (at least one dose above and one dose below), an estimate of the ED50 is calculated. The acute LD50 is determined as follows: Groups of four mice each are given selected doses of the test compound and placed in plastic cages with food and water ad lib. Twenty-four hours later, the number of dead mice is noted. When the LD50 is bracketed (at least one dose above and one below) an estimate of the LD50 is calculated. The values for Valproic acid and Dilantin are included in the table for comparison.

[3] = test system: tonic flexion-extension convulsions; assay: Supramaximal electroshock antagonism (suppression of convulsions induced in mice by transcranal electroshock); type: in vivo, Male albino ICR-swiss mice; details: Mus musculus, oral gavage, 1 hour after administration, 60 hertz, 25 milliamps, 0.2 second, read-out: Supramaximal Electroshock Antagonism Approximate ED50
Experimental: These examples illustrate the use of the compounds described in Examples 1 and 2 in suppressing convulsions induced in mice by supramaxal shock.
as §1

[4] = treatment of epilepsy, known drug; cited from earlier work

Structure (SMILES) | solubility in ethyl alcohol [1] | solubility in water [1] | LD50 at 24 h [2] | safety ratio (LD50/ED50) [2] | ED50 [3] | serious chronic side effects [4] | dosage needed to be effective relative to toxic dosage [4]
COc1cc(C(=O)NCCN(C)C)c(OC)c2ccccc12.Cl [1,4-dimethoxy-N-(2-dimethylaminoethyl)-2-naphthalene carboxamide hydrochloride] | sparingly soluble | sparingly soluble | ~750 mg/kg | ~17 | ~45 mg/kg | – | –
COc1cc(C(=O)NCCCN(C)C)c(OC)c2ccccc12.Cl [1,4-dimethoxy-N-(3-dimethylaminopropyl)-2-naphthalenecarboxamide hydrochloride] | sparingly soluble | sparingly soluble | ~750 mg/kg | ~10 | ~75 mg/kg | – | –
O=C1NC(=O)C(c2ccccc2)(c2ccccc2)N1 [Dilantin, phenytoin, reference compound] | – | – | ~417 mg/kg | – | ~13 mg/kg | megaloblastic anemia and osteomalacia | –
CCCC(CCC)C(=O)O [Valproic Acid, reference compound] | – | – | ~1420 mg/kg | – | ~600 mg/kg | – | very close to those which are acutely toxic
